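48-hour exposure; five concentrations; linearly interpolated endpoints. Here, GI50 denotes the concentration required for 50% inhibition of growth.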 Active and inactive are the calls of the source. Cut-off read from the data, not from the text of the source: active = GI50 up to about 1.1 µM and inactive = higher.
Columns and labels:
Assay in all cases: growth of human tumour cells (NCI), 48 h
SW-620 = tested on: SW-620
TK-10 = tested on: TK-10
PC-3 = tested on: PC-3
K562 = tested on: K562
HOP-62 = tested on: HOP-62
MDA-N = tested on: MDA-N
HCT-116 = tested on: HCT-116
UO-31 = tested on: UO-31
OVCAR-5 = tested on: OVCAR-5
SK-MEL-28 = tested on: SK-MEL-28
KM12 = tested on: KM12
LOX IMVI = tested on: LOX IMVI
786-0 = tested on: 786-0
EKVX = tested on: EKVX
HT-29 = tested on: HT-29
T47D = tested on: T47D
OVCAR-3 = tested on: OVCAR-3
MCF7 = tested on: MCF7
SF-539 = tested on: SF-539
HOP-92 = tested on: HOP-92

Row | Compound | GI50 (SW-620) | GI50 (TK-10) | GI50 (PC-3) | GI50 (K562) | GI50 (HOP-62) | GI50 (MDA-N) | GI50 (HCT-116) | GI50 (UO-31) | GI50 (OVCAR-5) | GI50 (SK-MEL-28) | GI50 (KM12) | GI50 (LOX IMVI) | GI50 (786-0) | GI50 (EKVX) | GI50 (HT-29) | GI50 (T47D) | GI50 (OVCAR-3) | GI50 (MCF7) | GI50 (SF-539) | GI50 (HOP-92)
1 | O=C(CN1C(=O)c2ccccc2C1=O)NC1(C(=O)O)CCCC1 | > 100 µM (inactive) | > 100 µM (inactive) | > 100 µM (inactive) | > 100 µM (inactive) | > 100 µM (inactive) | > 100 µM (inactive) | > 100 µM (inactive) | > 100 µM (inactive) | > 100 µM (inactive) | > 100 µM (inactive) | > 100 µM (inactive) | > 100 µM (inactive) | > 100 µM (inactive) | > 100 µM (inactive) | > 100 µM (inactive) | > 100 µM (inactive) | > 100 µM (inactive) | > 100 µM (inactive) | – | –
2 | N=C(N)C1CN(CCc2c[nH]cn2)C(=O)NC1=O (stereo unspecified) | > 100 µM (inactive) | > 100 µM (inactive) | > 100 µM (inactive) | – | > 100 µM (inactive) | > 100 µM (inactive) | > 100 µM (inactive) | > 100 µM (inactive) | > 100 µM (inactive) | > 100 µM (inactive) | > 100 µM (inactive) | – | > 100 µM (inactive) | > 100 µM (inactive) | > 100 µM (inactive) | – | > 100 µM (inactive) | > 100 µM (inactive) | > 100 µM (inactive) | > 100 µM (inactive)
3 | CC[C@H]1C=CCC[C@@]2(C[C@@H]3CC[C@H]4[C@H](C(=O)OCCCCCCCCCCCCCCCC(=O)N(CCCN)C[C@@H](O)CCN)[C@]5(CCC[C@@H](C)O5)NC(=[N+]34)N2)O1 | 0.604 µM (active) | 1.46 µM (inactive) | 0.7 µM (active) | 0.256 µM (active) | 1.26 µM (inactive) | 0.407 µM (active) | 0.344 µM (active) | 0.471 µM (active) | 0.429 µM (active) | 1.28 µM (inactive) | 0.509 µM (active) | 0.36 µM (active) | 0.543 µM (active) | 1.08 µM (active) | 0.387 µM (active) | – | 1.41 µM (inactive) | 0.421 µM (active) | 1.49 µM (inactive) | 0.318 µM (active)
4 | CCC1(COC(NC(=O)c2ccccc2)(C(F)(F)F)C(F)(F)F)COC1 | > 100 µM (inactive) | > 100 µM (inactive) | > 100 µM (inactive) | > 100 µM (inactive) | – | > 100 µM (inactive) | > 100 µM (inactive) | > 100 µM (inactive) | > 100 µM (inactive) | > 100 µM (inactive) | – | > 100 µM (inactive) | > 100 µM (inactive) | > 100 µM (inactive) | > 100 µM (inactive) | > 100 µM (inactive) | – | – | > 100 µM (inactive) | –
5 | NN/C(=N\S(=O)(=O)c1cc2ccccc2s1)Nc1ccc(Cl)cc1 | 23.1 µM (inactive) | 23 µM (inactive) | 22.2 µM (inactive) | 13.3 µM (inactive) | 18.8 µM (inactive) | – | 16.9 µM (inactive) | 18 µM (inactive) | 21.1 µM (inactive) | 25.1 µM (inactive) | 19.1 µM (inactive) | 20.8 µM (inactive) | 19.6 µM (inactive) | 19.2 µM (inactive) | 19.9 µM (inactive) | 17.8 µM (inactive) | 18.9 µM (inactive) | 20.2 µM (inactive) | 16.1 µM (inactive) | 19 µM (inactive)
6 | O=c1[nH][nH]c(=O)n1Cc1ccccc1 | > 100 µM (inactive) | > 100 µM (inactive) | > 100 µM (inactive) | > 100 µM (inactive) | – | > 100 µM (inactive) | > 100 µM (inactive) | > 100 µM (inactive) | > 100 µM (inactive) | > 100 µM (inactive) | > 100 µM (inactive) | > 100 µM (inactive) | > 100 µM (inactive) | > 100 µM (inactive) | > 100 µM (inactive) | > 100 µM (inactive) | > 100 µM (inactive) | > 100 µM (inactive) | > 100 µM (inactive) | –
7 | O=C(C(Cl)=C(Nc1ccccc1)Nc1ccccc1)C(Cl)Cl | 18.8 µM (inactive) | 40.3 µM (inactive) | 36.9 µM (inactive) | 25.3 µM (inactive) | 15.5 µM (inactive) | – | 17.3 µM (inactive) | 33.6 µM (inactive) | – | 33.2 µM (inactive) | 39.1 µM (inactive) | 13.2 µM (inactive) | 22.5 µM (inactive) | 22.6 µM (inactive) | 21.2 µM (inactive) | 12.4 µM (inactive) | 23 µM (inactive) | 23.9 µM (inactive) | 24.6 µM (inactive) | 21.8 µM (inactive)
8 | C1=Nc2sc3c(c2C2=NCCN12)CCCC3 | 21 µM (inactive) | 16.6 µM (inactive) | 16.7 µM (inactive) | 22.4 µM (inactive) | 20 µM (inactive) | 20.1 µM (inactive) | 16.3 µM (inactive) | 16.3 µM (inactive) | 18.2 µM (inactive) | 20.7 µM (inactive) | 17.2 µM (inactive) | 14.7 µM (inactive) | 17.4 µM (inactive) | 15.6 µM (inactive) | 18.1 µM (inactive) | 17.7 µM (inactive) | 17.6 µM (inactive) | 18.3 µM (inactive) | – | –
9 | COCOc1ccc(C(=O)C(C)c2ccc(OCOC)cc2OCOC)c(O)c1 (stereo unspecified) | > 100 µM (inactive) | > 100 µM (inactive) | 48.9 µM (inactive) | – | > 100 µM (inactive) | 52.8 µM (inactive) | > 100 µM (inactive) | 33.2 µM (inactive) | > 100 µM (inactive) | > 100 µM (inactive) | – | – | > 100 µM (inactive) | 83.6 µM (inactive) | > 100 µM (inactive) | – | – | 68.2 µM (inactive) | > 100 µM (inactive) | 48.1 µM (inactive)
10 | CCOC(=O)c1nc2ccccc2nc1Nc1ccc(OC)c(OC)c1 | – | > 10 µM (inactive) | – | > 100 µM (inactive) | > 100 µM (inactive) | > 100 µM (inactive) | > 100 µM (inactive) | > 100 µM (inactive) | > 100 µM (inactive) | > 100 µM (inactive) | > 100 µM (inactive) | – | 77.1 µM (inactive) | 18.7 µM (inactive) | > 100 µM (inactive) | > 100 µM (inactive) | > 100 µM (inactive) | > 100 µM (inactive) | > 100 µM (inactive) | 62.7 µM (inactive)
11 | CN(C)CCNC(=O)c1ccc2nc3c(nc2c1)C(=O)c1ccccc1-3 | 34.2 µM (inactive) | > 100 µM (inactive) | 45 µM (inactive) | – | 29 µM (inactive) | 18.2 µM (inactive) | 45.9 µM (inactive) | 40.6 µM (inactive) | > 100 µM (inactive) | > 100 µM (inactive) | 81.8 µM (inactive) | 29.9 µM (inactive) | 31.8 µM (inactive) | > 100 µM (inactive) | 26.4 µM (inactive) | – | 55 µM (inactive) | 27.9 µM (inactive) | 60.8 µM (inactive) | 57.4 µM (inactive)
12 | CCCc1ccc(OCC(=O)N/N=C/c2c(-c3ccccc3)[nH]c3ccccc23)cc1 | 10.6 µM (inactive) | 17.1 µM (inactive) | 5.98 µM (inactive) | 3.99 µM (inactive) | 12.9 µM (inactive) | – | 8.97 µM (inactive) | 24 µM (inactive) | 22.4 µM (inactive) | 20.1 µM (inactive) | 4.91 µM (inactive) | 9.38 µM (inactive) | 14.1 µM (inactive) | 12.7 µM (inactive) | 6.64 µM (inactive) | 5.77 µM (inactive) | 24.5 µM (inactive) | 4.57 µM (inactive) | 16.2 µM (inactive) | 13.7 µM (inactive)
13 | CC(C)C(Sc1nc(N)nc2nc[nH]c12)C(=O)O (stereo unspecified) | > 100 µM (inactive) | > 100 µM (inactive) | > 100 µM (inactive) | > 100 µM (inactive) | > 100 µM (inactive) | > 100 µM (inactive) | > 100 µM (inactive) | > 100 µM (inactive) | > 100 µM (inactive) | > 100 µM (inactive) | > 100 µM (inactive) | > 100 µM (inactive) | > 100 µM (inactive) | > 100 µM (inactive) | > 100 µM (inactive) | > 100 µM (inactive) | > 100 µM (inactive) | > 100 µM (inactive) | – | –
14 | O=C(CSCC(=O)N/N=C/c1ccc2c(c1)OCO2)N/N=C/c1ccc2c(c1)OCO2 | > 100 µM (inactive) | > 100 µM (inactive) | 40.6 µM (inactive) | 38.3 µM (inactive) | > 100 µM (inactive) | – | 85.7 µM (inactive) | > 100 µM (inactive) | > 100 µM (inactive) | > 100 µM (inactive) | > 100 µM (inactive) | > 100 µM (inactive) | > 100 µM (inactive) | 55.8 µM (inactive) | > 100 µM (inactive) | 55.5 µM (inactive) | > 100 µM (inactive) | 63 µM (inactive) | > 100 µM (inactive) | > 100 µM (inactive)
15 | O=C(CCc1ccccc1CO)NCCc1ccccc1 | > 100 µM (inactive) | > 100 µM (inactive) | > 100 µM (inactive) | > 100 µM (inactive) | > 100 µM (inactive) | – | > 100 µM (inactive) | 36.5 µM (inactive) | > 100 µM (inactive) | > 100 µM (inactive) | > 100 µM (inactive) | – | > 100 µM (inactive) | > 100 µM (inactive) | > 100 µM (inactive) | > 100 µM (inactive) | > 100 µM (inactive) | > 100 µM (inactive) | > 100 µM (inactive) | > 100 µM (inactive)
